Results on five compounds are retold here after ChEMBL document CHEMBL1127220, “3-hydroxy-3-cyclobutene-1,2-dione: Application of novel carboxylic acid bioisostere to an in-vivo active non-tetrazole angiotensin-II antagonist” (Bioorg Med Chem Lett, 1993).

The subject of this assay is Rattus norvegicus. The assay can be described thus: Maximum % change of AII-supported portion of mean arterial pressure at 3 mg/kg, i.d. It counts as functional, Artery. The settings on record: route intraduodenal.
`CCCCc1nc(Cl)c(CO)n1Cc1ccc(-c2ccccc2-c2nnn[nH]2)cc1` [LOSARTAN]: the Change is given as -72%.

In the case of `FC(F)(F)c1nc2c(c(NCc3ccc(-c4ccccc4-c4nn[nH]n4)cc3)n1)CCCC2`, the Change is -75%.

On to `O=C(O)c1ccccc1-c1ccc(CNc2nc(C(F)(F)F)nc3c2CCCC3)cc1`, for which the Change is reported as -62%.

Take `O=c1c(O)c(-c2ccccc2-c2ccc(CNc3nc(C(F)(F)F)nc4c3CCCC4)cc2)c1=O`: the Change is reported as -52%.

For the compound `O=S(=O)(Nc1ccccc1-c1ccc(CNc2nc(C(F)(F)F)nc3c2CCCC3)cc1)C(F)(F)F`, the Change is given as -31%.
